Measurements: patent US10583206B2, “Radioactive probe for detecting hydrogen sulfide” (KYUNGPOOK NATIONAL UNIVERSITY INDUSTRY-ACADEMIC COOPERATION …, priority 2015, dated 2020)

What was measured:
[1] = Test of hydrogen sulfide detection over time (^64CuS formation, radio-TLC); type: physicochemical; set-up: unit not given here; conditions: 100 μM NaHS, 37° C.
Description: To examine reactivity of the ^64Cu-labeled complex compound according to the present disclosure over time, the following experiment was performed.
A detailed experimental method is as follows.
About 45 μCi-50 μCi of ^64Cu-labeled complex compound (250 μL of triple distilled water) was mixed with 100 μM of NaHS solution ([…] of triple distilled water), and stirred at 37° C. for 15 minutes. Formation of copper sulfide (^64CuS) was quantified by using a radio-TLC scanner.

[2] = Hydrogen sulfide selectivity test: decomplexation by GSH; type: physicochemical; conditions: 100 μM or GSH (10 mM), 37° C. for 15 minutes
Description: (§1) In addition to hydrogen sulfide, many different anions, radicals, etc. exist in the body. Therefore, to examine selective reactivity of the ^64Cu-labeled complex compound according to the present disclosure for sulfide ions, the following experiment was performed.
(§2) About 45 μCi-55 μCi of the ^64Cu-labeled complex compound (250 μL of triple distilled water) was mixed with 100 μM of various anion solutions (250 μL of triple distilled water) including biothiol, and stirred at 37° C. for 15 minutes.
(§3) Formation of copper sulfide (^64CuS) was quantified by using a radio-TLC scanner.
(§4) Various biothiol or salt solutions were prepared by dissolving the compounds in triple distilled water.
(§5) In Table, concentrations of all biothiols and other competitive materials are 100 μM. Further, specific concentrations of biothiols, anions, and oxidants used in Table are as follows: [L-Cys (1 mM); L-Hcys (10 mM); GSH (10 mM); DL-dithiothretitol (DTT, 100 μM); L-ascorbic acid (L-AsA, 10 mM); 2-mercaptoethanol (2-ME, 10 mM); NaCl (10 mm); KI (1 mM); Na2S2O3 (1 mM); Na2S2O5 (1 mM); NaOAc (1 mM); H2O2 ([…]); NaClO4 (100 μM); NaHCO3 (100 μM); NaNO2 ([…]); NaN3 (100 μM); ATB 337 (100 μM); diallyl trisulphide (100 μM)].

[3] = Hydrogen sulfide selectivity test: decomplexation by ME; type: physicochemical; conditions: 2-mercaptoethanol; 100 μM or (2-ME, 10 mM); 37° C. for 15 minutes
Description: as §1, §2, §3, §4, §5

[4] = Hydrogen sulfide selectivity test: decomplexation by NaCl; type: physicochemical; conditions: 100 μM or NaCl (10 mm), 37° C. for 15 minutes
Description: as §1, §2, §3, §4, §5

[5] = Hydrogen sulfide selectivity test: decomplexation by Na2S2O3; type: physicochemical; conditions: 100 μM or (1 mM), 37° C. for 15 minutes
Description: as §1, §2, §3, §4, §5

[6] = Hydrogen sulfide selectivity test: decomplexation by Na2S2O5; type: physicochemical; conditions: 100 μM or (1 mM), 37° C. for 15 minutes
Description: as §1, §2, §3, §4, §5

[7] = Hydrogen sulfide selectivity test: decomplexation by NaN3; type: physicochemical; conditions: NaN3 (100 μM); 37° C. for 15 minutes
Description: as §1, §2, §3, §4, §5

[8] = Hydrogen sulfide selectivity test: decomplexation by DAT (diallyl trisulphide); type: physicochemical; conditions: DAT = diallyl trisulphide (100 μM); 37° C. for 15 minutes
Description: as §1, §2, §3, §4, §5

[9] = Test of hydrogen sulfide-specific imaging (matrigel/NaHS sites on backs of rats, optical imaging); type: in vivo
Description: In order to examine whether the ^64Cu-labeled complex compounds according to the present disclosure are able to selectively detect in vivo hydrogen sulfide, different materials were injected into the backs of rats, and then each ^64Cu-labeled complex compound according to the present disclosure was injected via the tail, and then selective imaging was examined by optical imaging.
Referring to FIG. 4, at the beginning of the first experiment, matrigel alone, matrigel+1 mg NaCl, matrigel+0.5 mg NaHS, and matrigel+0.05 mg NaHS were injected into four sites on the backs of rats, respectively. 1.8 mCi of the ^64Cu-labeled complex compound according to Example 1 was injected via the tails of rats, immediately followed by optical imaging.

Arthritis model = assay: Imaging in arthritis model; type: in vivo, DBA/1J mice
Description: An arthritis inducer, bovine type II collagen was intradermally injected into the tails of DBA/1J mice twice, and 5 weeks later (about 13-week-old), the mice were used in imaging tests. Arthritis degree of the paw was quantified by scoring.
Nuclear medicine imaging was measured by using an Inveon PET/CT system of Siemens Healthcare, and optical imaging was measured by using IVIS spectrum CT equipment. Cherenkov radiation emitted from ^64Cu was measured by using a highly sensitive CCD (charge-coupled device) camera.
Imaging was measured for 1 minute to 5 minutes, and a radiation dose was about 50 μCi to 2000 μCi, and photographs were variously taken as needed, such as immediately after first injection, at 1 hour, 4 hours, and 24 hours later.

EMT6 tumor = assay: Imaging study in EMT6 tumor model (PET); type: in vivo, BALB/c female mouse
Source text: To prepare an EMT6 tumor model, the number of cells was counted using a haemacytometer, and 2×10^5 cells were subcutaneously injected into the right flank and left shoulder region of BALB/c female mouse. About 2˜3 weeks later, when formation of about 1 cm of tumor was observed, the mice were used in subsequent experiments.
(§6) PET images were obtained after injecting the ^64Cu-labeled complex compound of Example 1 into the prepared rat model having EMT6 tumor and rat model having CT26 tumor.

CT26 tumor = assay: Imaging study in CT26 tumor model (PET); type: in vivo, BALB/c mouse
Source text: To prepare a CT26 tumor model, the number of cells was counted using a haemacytometer, and 5×10^6 cells were subcutaneously injected into the right flank of BALB/c mouse. About 10 days later, when formation of about 1 cm of tumor was observed, the mice were used in subsequent experiments.
as §6

[10] = Imaging study of hydrogen sulfide in normal rat (PET); type: in vivo; conditions: PET image before excision of the tongue
Source text: PET images were obtained after injecting the ^64Cu-labeled complex compound of Example 1 into a normal rat, and PET images were obtained again after excision of the tongue thereof. […] However, after excision (B), the uptake was decreased in the same site. […] (C) is a photograph taken before imaging the tongue after excision.

Sepsis model = assay: Imaging study in sepsis model (PET); type: in vivo, ICR mice
Source text: After the lower abdominal region of ICR mice was opened, a small puncture in the appendix was made by using a syringe needle to prepare an acute sepsis model.
PET images were obtained after injecting the ^64Cu-labeled complex compound of Example 20 into the prepared rat model having sepsis.

Row | Structure (SMILES) | Formation of copper sulfide (^64CuS) over time ([1]; 10 sec) | Formation of copper sulfide (^64CuS) over time ([1]; 30 sec) | Formation of copper sulfide (^64CuS) over time ([1]; 60 sec) | Formation of copper sulfide (^64CuS) over time ([1]; 5 min) | Formation of copper sulfide (^64CuS) over time ([1]; 10 min) | Formation of copper sulfide (^64CuS) over time ([1]; 15 min) | Decomplexation [%] [2] | Decomplexation [%] [3] | Decomplexation [%] [4] | Decomplexation [%] [5] | Decomplexation [%] [6] | Decomplexation [%] [7] | Decomplexation [%] [8] | other results
1 | C1C[N]2CC[N]3CC[N]4CC[N]1[64Cu]243 [Example 1, ^64Cu-labeled cyclen] | 13 | 17 | 21 | 100 | 100 | 100 | 0.7 ± 0.0% | 0.5 ± 0.1% | 0.2 ± 0.0% | 0.4 ± 0.0% | 0.5 ± 0.2% | 0.3 ± 0.2% | 0.4 ± 0.3% | optical imaging signals at four injected sites (matrigel alone, +NaCl, +0.5 mg NaHS, +0.05 mg NaHS) ([9]; 1.8 mCi via the tails of rats, imaging immediately): signals were detected only in the lower two sites injected with NaHS; optical imaging signals at four injected sites (matrigel alone, +NaCl, +0.5 mg NaHS, +0.05 mg NaHS) ([9]; after 4 hours): signals were still detected only in the lower two sites; uptake in the joint region (Arthritis model): selective uptake in the joint region; uptake in the tumor region versus background (EMT6 tumor): higher uptake was observed in the tumor region; uptake in the tumor region versus background (CT26 tumor): higher uptake was observed in the tumor region; uptake in the tongue [10]: high uptake was observed in the tongue
2 | C1C[N]2CC[N]3CC[N]1[64Cu]23 [Example 20, ^64Cu-labeled TACN] | 0 | 0 | 5 | 13 | 60 | 60 | 2.6 ± 0.0% | 0.4 ± 0.0% | 0.5 ± 0.0% | 0.5 ± 0.0% | 0.5 ± 0.2% | 0.4 ± 0.0% | 0.7 ± 0.6% | uptake in the lung (Sepsis model): increased uptake was observed in the lung; uptake throughout the body (Sepsis model): uptake was increased throughout the body
